Experimental data reported in PubChem BioAssay AID1259407 (Chemical Carcinogenesis Research Information System (CCRIS), 2018).
Activity calls are given as the source filed them. How the calls were made is not given here. *1 amine or outer side, *2 acyl side, *3 side chain or, on linkers, in order; H or OH if unused. Where a SMILES comes first, the peptide text is derived from it. Bridges are numbered along the chain shown (N, C = ends). Roman numbers before positions name the chains, in order. [ ]: non-standard residue; d: D form. Actinocin(9to1) = Cc1c2oc3c(C)ccc(C(=O)[*:1])c3nc-2c(C(=O)[*:2])c(N)c1=O; NMeV = CN[C@H](C(=O)O)C(C)C; Sar = CNCC(=O)O

Tested on: CCRIS mutagenicity, Ames/micronucleus/aberration tests
Assay: CCRIS mutagenicity studies
[1] = Test System: AMES SALMONELLA TYPHIMURIUM, Strain/Indicator: TA98, Metabolic Activation: NONE, Method: STANDARD PLATE
[2] = Test System: AMES SALMONELLA TYPHIMURIUM, Strain/Indicator: TA100, Metabolic Activation: NONE, Method: STANDARD PLATE
[3] = Test System: AMES SALMONELLA TYPHIMURIUM, Strain/Indicator: TA1535, Metabolic Activation: HAMSTER, LIVER, S-9, AROCLOR 1254, Method: STANDARD PLATE
[4] = Test System: AMES SALMONELLA TYPHIMURIUM, Strain/Indicator: TA1535, Metabolic Activation: NONE, Method: STANDARD PLATE
[5] = Test System: AMES SALMONELLA TYPHIMURIUM, Strain/Indicator: TA1537, Metabolic Activation: NONE, Method: STANDARD PLATE
[6] = Test System: MOUSE LYMPHOMA, Strain/Indicator: L5178Y (TK+/TK-), Metabolic Activation: NONE, Method: SUSPENSION/PLATE
[7] = Test System: MOUSE LYMPHOMA, Strain/Indicator: L5178Y (TK+/TK-), Metabolic Activation: RAT, LIVER, S-9, AROCLOR 1254, Method: SUSPENSION/PLATE

For CCCCCCCCCC/C=C/C1CC(=O)OC1=O (centres undefined), the mutagenic call (Test System: AMES SALMONELLA TYPHIMURIUM, Strain/Indicator: TA98, Metabolic Activation: HAMSTER, LIVER, S-9, AROCLOR 1254, Method: STANDARD PLATE) was “inactive; negative”, the mutagenic call [1] was “inactive; negative” and the mutagenic call (Test System: AMES SALMONELLA TYPHIMURIUM, Strain/Indicator: TA98, Metabolic Activation: RAT, LIVER, S-9, AROCLOR 1254, Method: STANDARD PLATE) was “inactive; negative”. The mutagenic call (Test System: AMES SALMONELLA TYPHIMURIUM, Strain/Indicator: TA100, Metabolic Activation: HAMSTER, LIVER, S-9, AROCLOR 1254, Method: STANDARD PLATE) was “inactive; negative”, the mutagenic call [2] was “inactive; negative” and the mutagenic call (Test System: AMES SALMONELLA TYPHIMURIUM, Strain/Indicator: TA100, Metabolic Activation: RAT, LIVER, S-9, AROCLOR 1254, Method: STANDARD PLATE) was “inactive; negative”. For the same compound, the mutagenic call [3] was “inactive; negative”, the mutagenic call [4] was “inactive; negative” and the mutagenic call (Test System: AMES SALMONELLA TYPHIMURIUM, Strain/Indicator: TA1535, Metabolic Activation: RAT, LIVER, S-9, AROCLOR 1254, Method: STANDARD PLATE) was “inactive; negative”. For the same compound, the mutagenic call (Test System: AMES SALMONELLA TYPHIMURIUM, Strain/Indicator: TA1537, Metabolic Activation: HAMSTER, LIVER, S-9, AROCLOR 1254, Method: STANDARD PLATE) was “inactive; negative”, the mutagenic call [5] was “inactive; negative” and the mutagenic call (Test System: AMES SALMONELLA TYPHIMURIUM, Strain/Indicator: TA1537, Metabolic Activation: RAT, LIVER, S-9, AROCLOR 1254, Method: STANDARD PLATE) was “inactive; negative”. For the same compound, the mutagenic call (Test System: AMES SALMONELLA TYPHIMURIUM, Strain/Indicator: TA1538, Metabolic Activation: HAMSTER, LIVER, S-9, AROCLOR 1254, Method: STANDARD PLATE) was “inactive; negative”, the mutagenic call (Test System: AMES SALMONELLA TYPHIMURIUM, Strain/Indicator: TA1538, Metabolic Activation: NONE, Method: STANDARD PLATE) was “inactive; negative” and the mutagenic call (Test System: AMES SALMONELLA TYPHIMURIUM, Strain/Indicator: TA1538, Metabolic Activation: RAT, LIVER, S-9, AROCLOR 1254, Method: STANDARD PLATE) was “inactive; negative”. The mutagenic call [6] was “inactive; negative. reevaluation of results: inconclusive” and the mutagenic call [7] was “inactive; negative. reevaluation of results: negative”.
With Cc1c2oc3c(C)ccc(C(=O)N[C@@H]4C(=O)N[C@H](C(C)C)C(=O)N5CCC[C@H]5C(=O)N(C)CC(=O)N(C)[C@@H](C(C)C)C(=O)O[C@@H]4C)c3nc-2c(C(=O)N[C@@H]2C(=O)N[C@H](C(C)C)C(=O)N3CCC[C@H]3C(=O)N(C)CC(=O)N(C)[C@@H](C(C)C)C(=O)O[C@@H]2C)c(N)c1=O (I: T[dV]P[Sar][NMeV] / II: T[dV]P[Sar][NMeV]; ester I:1-I:C, II:1-II:C; linker I:N-II:N via Actinocin(9to1)) the mutagenic call (End Point: IN VITRO MICRONUCLEUS, Test System: CHO CELLS, Metabolic Activation: RAT, LIVER, S-9, AROCLOR 1254) was “active; positive”, the mutagenic call (End Point: IN VITRO MICRONUCLEUS, Test System: V79 CELLS, Metabolic Activation: NONE) was “active; positive” and the mutagenic call [1] was “inactive; negative”. The mutagenic call [2] was “inactive; negative”, the mutagenic call (Test System: AMES SALMONELLA TYPHIMURIUM, Strain/Indicator: TA102, Metabolic Activation: NONE, Method: STANDARD PLATE) was “inactive; negative” and the mutagenic call [5] was “inactive; negative”. The mutagenic call (Test System: E. COLI, Strain/Indicator: WP2 (HCR), Metabolic Activation: NONE, Method: STANDARD PLATE) was “inactive; negative” and the mutagenic call [6] was “active; positive”.
CN(Cc1cccc(C#N)c1)N=O was tested, and the mutagenic call [3] was “active; positive” and the mutagenic call [4] was “active; positive”.
For O=C(OC[C@@H]1O[C@H](OC(=O)c2cc(O)c(O)c(OC(=O)c3cc(O)c(O)c(O)c3)c2)[C@@H](OC(=O)c2cc(O)c(O)c(OC(=O)c3cc(O)c(O)c(O)c3)c2)[C@H](OC(=O)c2cc(O)c(O)c(OC(=O)c3cc(O)c(O)c(O)c3)c2)[C@H]1OC(=O)c1cc(O)c(O)c(OC(=O)c2cc(O)c(O)c(O)c2)c1)c1cc(O)c(O)c(OC(=O)c2cc(O)c(O)c(O)c2)c1, the mutagenic call (Test System: AMES SALMONELLA TYPHIMURIUM, Strain/Indicator: TA98, Metabolic Activation: NONE, Method: PREINCUBATION) was “inactive; negative”, the mutagenic call (Test System: AMES SALMONELLA TYPHIMURIUM, Strain/Indicator: TA98, Metabolic Activation: RAT LIVER S-9, Method: PREINCUBATION) was “inactive; negative” and the mutagenic call (Test System: AMES SALMONELLA TYPHIMURIUM, Strain/Indicator: TA100, Metabolic Activation: NONE, Method: PREINCUBATION) was “inactive; negative”. For the same compound, the mutagenic call (Test System: AMES SALMONELLA TYPHIMURIUM, Strain/Indicator: TA100, Metabolic Activation: RAT LIVER S-9, Method: PREINCUBATION) was “inactive; negative”, the mutagenic call (Test System: AMES SALMONELLA TYPHIMURIUM, Strain/Indicator: TA102, Metabolic Activation: RAT LIVER S-9, PHENOBARBITAL AND 5,6-BENZOFLAVONE, Method: STANDARD PLATE) was “inactive; negative” and the mutagenic call (Test System: AMES SALMONELLA TYPHIMURIUM, Strain/Indicator: TA2638, Metabolic Activation: RAT LIVER S-9, PHENOBARBITAL AND 5,6-BENZOFLAVONE, Method: STANDARD PLATE) was “inactive; negative”. For the same compound, the mutagenic call (Test System: E. COLI, Strain/Indicator: WP2 (PKM101), Metabolic Activation: RAT LIVER S-9, PHENOBARBITAL AND 5,6-BENZOFLAVONE, Method: STANDARD PLATE) was “inactive; negative” and the mutagenic call (Test System: E. COLI, Strain/Indicator: WP2 UVRA (PKM101), Metabolic Activation: RAT LIVER S-9, PHENOBARBITAL AND 5,6-BENZOFLAVONE, Method: STANDARD PLATE) was “inactive; negative”.
CC(=O)[O-].CC(=O)[O-].[Hg+2] was tested, and the mutagenic call (End Point: IN VITRO MICRONUCLEUS, Test System: CHL/IU CELLS, Metabolic Activation: NONE) was “active; positive”, the mutagenic call (Test System: CHINESE HAMSTER OVARY, Strain/Indicator: AS52/6-THIOGUANINE, Metabolic Activation: NONE) was “active; positive” and the mutagenic call (Test System: CHINESE HAMSTER OVARY, Strain/Indicator: CHO-AS52/6-THIOGUANINE, Metabolic Activation: NONE) was “active; positive”.
With Oc1ccccc1F the mutagenic call [7] was “active; positive. reevaluation of results: positive”, the mutagenic call (Test System: Mouse lymphoma, Strain/Indicator: L5178Y (tk+/tk-), Metabolic Activation: None, Method: Suspension/plate) was “inactive; negative” and the mutagenic call (Test System: Mouse lymphoma, Strain/Indicator: L5178Y (tk+/tk-), Metabolic Activation: Rat, Liver, S-9, Aroclor 1254, Method: Suspension/plate) was “inactive; inconclusive (previous evaluation negative)”.
For Nc1ccc(-c2cc(Cl)c(N)cc2[N+](=O)[O-])cc1Cl, the mutagenic call (Test System: Ames Salmonella typhimurium, Strain/Indicator: TA98, Metabolic Activation: None, Method: Preincubation) was “active; positive. weak response”, the mutagenic call (Test System: Ames Salmonella typhimurium, Strain/Indicator: TA98, Metabolic Activation: Rat, Liver, S-9, Phenobarbital and 5,6-benzoflavone, Method: Preincubation) was “active; positive” and the mutagenic call (Test System: Ames Salmonella typhimurium, Strain/Indicator: TA100, Metabolic Activation: None, Method: Preincubation) was “inactive; negative”. The mutagenic call (Test System: Ames Salmonella typhimurium, Strain/Indicator: TA100, Metabolic Activation: Rat, Liver, S-9, Phenobarbital and 5,6-benzoflavone, Method: Preincubation) was “active; positive. weak response”, the mutagenic call (Test System: Ames Salmonella typhimurium, Strain/Indicator: YG1024, Metabolic Activation: None, Method: Preincubation) was “active; positive” and the mutagenic call (Test System: Ames Salmonella typhimurium, Strain/Indicator: YG1024, Metabolic Activation: Rat, Liver, S-9, Phenobarbital and 5,6-benzoflavone, Method: Preincubation) was “active; positive”. The mutagenic call (Test System: Ames Salmonella typhimurium, Strain/Indicator: YG1029, Metabolic Activation: None, Method: Preincubation) was “inactive; negative” and the mutagenic call (Test System: Ames Salmonella typhimurium, Strain/Indicator: YG1029, Metabolic Activation: Rat, Liver, S-9, Phenobarbital and 5,6-benzoflavone, Method: Preincubation) was “active; positive. weak response”.
